These results are taken from PubChem BioAssay (NCI).

Some test systems named below: CAKI-1 renal; CCRF-CEM leukemia; HL-60(TB) leukemia; NCI-H23 lung; OVCAR-5 ovarian; SF-539 CNS; SNB-19 CNS; SNB-75 CNS; SR leukemia; UACC-257 melanoma.
Holding throughout (assay): NCI anticancer screen, dose series, 48 h

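A five-concentration, 48-hour dose response in 96-well plates underlies each endpoint, interpolated linearly between surrounding concentrations. At the GI50, growth is halved. The concentration for full growth arrest is given as TGI.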

On to `CC(C)(C)OC(=O)n1c(Cl)c(C=O)c2ccccc21`, for which the TGI with CAKI-1 renal was 35.4 µM; in the assay on CCRF-CEM leukemia, 79.4 µM; in the assay on HL-60(TB) leukemia, above 100 µM; in the assay with NCI-H23 lung, 47 µM; in the assay with OVCAR-5 ovarian, 72.3 µM; in the assay with SF-539 CNS, 89.1 µM. The TGI in the assay on SNB-19 CNS was above 100 µM; with SNB-75 CNS, above 100 µM; in the assay with SR leukemia, above 100 µM; in the assay on UACC-257 melanoma it was 67.3 µM.
`COc1cc(/C(=C2/O[C@@H]([C@H]3COC(C)(C)O3)[C@H]3OC(C)(C)O[C@@H]23)c2ccc3c(c2)OCO3)cc(OC)c1OC`: the GI50 in the assay on CAKI-1 renal was above 25 µM; with CCRF-CEM leukemia, above 25 µM; with HL-60(TB) leukemia, above 25 µM; in the assay on NCI-H23 lung, above 25 µM; with OVCAR-5 ovarian, 4.85 µM; in the assay with SF-539 CNS it was 8.05 µM. Moreover, the GI50 is above 25 µM in the assay on SNB-19 CNS, 7.13 µM in the assay with SNB-75 CNS, above 25 µM in the assay with SR leukemia and above 25 µM in the assay on UACC-257 melanoma. The TGI in the assay with CAKI-1 renal, in the assay with CCRF-CEM leukemia, with HL-60(TB) leukemia, in the assay on NCI-H23 lung, in the assay with OVCAR-5 ovarian and in the assay with SF-539 CNS was above 25 µM each time. Moreover, the TGI in the assay on SNB-19 CNS, in the assay with SNB-75 CNS, with SR leukemia and in the assay with UACC-257 melanoma was above 25 µM each time.
`C[C@]12CC[C@H](O)CC1=CC[C@@H]1[C@@H]2CC[C@]2(C)C(=O)/C(=C/c3ccc([N+](=O)[O-])cc3)C[C@@H]12`: the TGI with CAKI-1 renal is above 100 µM; in the assay with CCRF-CEM leukemia it was above 100 µM; in the assay on HL-60(TB) leukemia, above 100 µM; with NCI-H23 lung, 57 µM; in the assay with OVCAR-5 ovarian it was 50.9 µM; in the assay with SF-539 CNS it was 20.9 µM. For the same molecule, the TGI was 27.8 µM in the assay with SNB-19 CNS, 9.67 µM in the assay on SNB-75 CNS, above 100 µM in the assay with SR leukemia and 56 µM with UACC-257 melanoma.
`NCCS(=O)(=O)O`: the TGI in the assay with CAKI-1 renal, in the assay with CCRF-CEM leukemia, with HL-60(TB) leukemia, in the assay on NCI-H23 lung, with OVCAR-5 ovarian and with SF-539 CNS was above 100 µM throughout. Besides, the TGI in the assay on SNB-19 CNS, in the assay on SNB-75 CNS, in the assay with SR leukemia and with UACC-257 melanoma was above 100 µM each time.
Regarding `CC1C(C#N)(C#N)C(C#N)=C(N)C1(C)[N+](=O)[O-]` (stereo not given), the TGI with CAKI-1 renal was above 100 µM; with CCRF-CEM leukemia, above 100 µM; in the assay with HL-60(TB) leukemia, 90.7 µM; in the assay with NCI-H23 lung, above 100 µM; in the assay with OVCAR-5 ovarian it was above 100 µM; in the assay with SF-539 CNS, above 100 µM. For the same molecule, the TGI with SNB-19 CNS, with SNB-75 CNS, with SR leukemia and with UACC-257 melanoma was above 100 µM throughout.
For the molecule `OC(C1CCCCCCCCCC1)C(O)C1CCCCCCCCCC1` (stereo not given), the TGI in the assay with CAKI-1 renal, in the assay on CCRF-CEM leukemia, with HL-60(TB) leukemia, in the assay on NCI-H23 lung, in the assay on OVCAR-5 ovarian and with SF-539 CNS was above 100 µM throughout. The TGI in the assay on SNB-19 CNS, in the assay with SNB-75 CNS, in the assay on SR leukemia and with UACC-257 melanoma was above 100 µM in each case.
Take `COC12C=CC(CC1)C(C)(C)C2OS(C)(=O)=O` (stereo not given): the TGI in the assay on CAKI-1 renal, in the assay on CCRF-CEM leukemia, in the assay on HL-60(TB) leukemia, with NCI-H23 lung, with OVCAR-5 ovarian and with SF-539 CNS was above 100 µM throughout. In addition, the TGI with SNB-19 CNS, in the assay on SNB-75 CNS, with SR leukemia and in the assay on UACC-257 melanoma was above 100 µM throughout.
As to `CCOC(=O)C(NC(=O)CC)(Nc1ccc(S(=O)(=O)Nc2ccc(OC)nn2)cc1)C(F)(F)F` (stereo not given), the TGI in the assay with CAKI-1 renal, with CCRF-CEM leukemia, in the assay with HL-60(TB) leukemia, with NCI-H23 lung, in the assay on OVCAR-5 ovarian and in the assay on SF-539 CNS was above 100 µM each time. In addition, the TGI in the assay on SNB-19 CNS, with SNB-75 CNS, in the assay with SR leukemia and in the assay with UACC-257 melanoma was above 100 µM each time.
Turning to `CC(=O)OCC1OC(SC2=NC(=O)/C(=C/c3ccccc3)S2)C(OC(C)=O)C(OC(C)=O)C1OC(C)=O` (stereo not given), the TGI in the assay on CAKI-1 renal is 12 µM; with CCRF-CEM leukemia, 94.4 µM; in the assay on HL-60(TB) leukemia it was 31.3 µM; in the assay on NCI-H23 lung, above 100 µM; with OVCAR-5 ovarian, above 100 µM; with SF-539 CNS it was 45.7 µM. For the same molecule, the TGI in the assay on SNB-19 CNS is above 100 µM; with SNB-75 CNS, 44.7 µM; in the assay with SR leukemia, 51.5 µM; in the assay on UACC-257 melanoma, above 100 µM.
For `O=C1O[C@H]2C3C4CCC(C4[C@@H]2I)[C@H]13` (stereo not given in full), the TGI in the assay on CAKI-1 renal, in the assay on CCRF-CEM leukemia, with HL-60(TB) leukemia, in the assay on NCI-H23 lung, with OVCAR-5 ovarian and in the assay with SF-539 CNS was above 100 µM in each case. The TGI with SNB-19 CNS, in the assay on SNB-75 CNS, in the assay on SR leukemia and in the assay with UACC-257 melanoma was above 100 µM each time.
